From patent publication US10259810B2, “N-sulfonylated pyrazolo[3,4-b]pyridin-6-carboxamides and method of use” (AbbVie S.à.r.l., priority 2015, dated 2019)

Experiments:
[1] = target: T1, ΔF508-CFTR (Homo sapiens, UniProt P13569, DEL508-508); assay: CFTR cell surface levels using HRP-tagged ΔF508-CFTR expressing CFBE cells, in the presence of a co-corrector; format: cell-based; details: HRP-tagged ΔF508-CFTR CFBE cells, in the presence of 3 μM co-corrector; for EC50: read-out: EC50
T1 construct: host or cells: CFBE41o-, doxycycline-inducible
T1 sequence (P13569 with tags, fused parts or gaps DEL508-508): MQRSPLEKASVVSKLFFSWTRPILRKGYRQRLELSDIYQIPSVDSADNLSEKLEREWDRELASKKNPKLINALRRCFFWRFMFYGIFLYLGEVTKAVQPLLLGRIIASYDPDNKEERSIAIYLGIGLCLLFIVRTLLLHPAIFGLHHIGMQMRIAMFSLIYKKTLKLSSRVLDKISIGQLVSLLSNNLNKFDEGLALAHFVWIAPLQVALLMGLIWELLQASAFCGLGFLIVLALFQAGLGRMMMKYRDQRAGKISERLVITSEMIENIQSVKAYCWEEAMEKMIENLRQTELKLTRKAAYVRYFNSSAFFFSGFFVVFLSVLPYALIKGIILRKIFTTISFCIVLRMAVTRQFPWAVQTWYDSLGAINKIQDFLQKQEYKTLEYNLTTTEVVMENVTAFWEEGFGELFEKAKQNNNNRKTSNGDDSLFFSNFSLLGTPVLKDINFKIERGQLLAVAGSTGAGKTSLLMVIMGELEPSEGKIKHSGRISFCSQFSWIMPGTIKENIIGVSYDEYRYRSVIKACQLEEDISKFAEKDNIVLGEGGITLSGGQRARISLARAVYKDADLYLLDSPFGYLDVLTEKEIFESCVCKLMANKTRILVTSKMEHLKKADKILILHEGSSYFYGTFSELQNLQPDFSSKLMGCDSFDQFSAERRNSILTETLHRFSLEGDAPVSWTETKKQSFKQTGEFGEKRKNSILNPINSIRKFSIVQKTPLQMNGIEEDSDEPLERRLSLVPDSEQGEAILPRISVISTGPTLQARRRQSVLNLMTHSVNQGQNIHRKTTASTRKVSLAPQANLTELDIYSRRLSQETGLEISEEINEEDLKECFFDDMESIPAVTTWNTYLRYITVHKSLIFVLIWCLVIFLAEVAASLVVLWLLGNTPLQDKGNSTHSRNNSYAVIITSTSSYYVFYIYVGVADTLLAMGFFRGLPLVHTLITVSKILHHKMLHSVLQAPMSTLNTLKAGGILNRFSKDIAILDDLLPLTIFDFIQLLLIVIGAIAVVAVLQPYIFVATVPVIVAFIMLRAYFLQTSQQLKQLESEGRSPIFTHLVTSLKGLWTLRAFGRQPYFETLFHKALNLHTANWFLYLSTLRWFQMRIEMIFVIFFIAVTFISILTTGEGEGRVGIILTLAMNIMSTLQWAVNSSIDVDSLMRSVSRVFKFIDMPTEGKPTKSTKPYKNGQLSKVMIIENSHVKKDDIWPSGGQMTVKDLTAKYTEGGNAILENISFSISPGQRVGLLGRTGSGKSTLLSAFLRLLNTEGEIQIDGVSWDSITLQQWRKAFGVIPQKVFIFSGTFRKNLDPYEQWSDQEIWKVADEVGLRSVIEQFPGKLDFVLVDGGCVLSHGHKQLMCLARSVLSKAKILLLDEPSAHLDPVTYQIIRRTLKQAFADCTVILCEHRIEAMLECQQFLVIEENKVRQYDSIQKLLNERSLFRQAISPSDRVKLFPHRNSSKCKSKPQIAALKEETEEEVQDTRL
How it was run: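 Chemiluminescent read-out of surface HRP (15 min, dark) after PBS washes. Activity is normalized as 100×(sample−DMSO)/(3 μM co-corrector alone−DMSO).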

[2] = target: T1, ΔF508-CFTR; assay: CFTR cell surface levels using HRP-tagged ΔF508-CFTR expressing CFBE cells, intrinsic corrector capacity; format: cell-based; design: % Activation: concentration or dose not given beside the values; details: HRP-tagged ΔF508-CFTR expressing CFBE41o- cells, compound alone (intrinsic corrector capacity), 20 hours at 33° C.; for EC50: read-out: EC50
How it was run: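 Read-out: chemiluminescent HRP activity of ECL4-HRP-tagged ΔF508-CFTR at the cell surface, 15 min substrate in dark. Normalized as 100×(sample−DMSO)/(positive control−DMSO).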

SMILES | % Activation [1] [%] | EC50 [1] [nM] | % Activation [2] [%] | EC50 [2] [nM]
COCCN(C)c1ccc(-c2cc(C(=O)NS(C)(=O)=O)nc3c2c(C(C)C)nn3-c2cccc(C(F)(F)F)c2)cc1 [Compound 132, N-(methanesulfonyl)-4-{4-[(2-methoxyethyl)(methyl)amino]phenyl}-3-(propan-2-yl)-1-[3-(trifluoromethyl)phenyl]-1H-pyrazolo[3,4-b]pyridine-6-carboxamide] | 417.2 | 882 | 244 | 1270
Cc1cccc(-n2nc(C(C)C)c3c(N4CCCCC4)cc(C(=O)NS(C)(=O)=O)nc32)c1 [Compound 101, N-(methanesulfonyl)-1-(3-methylphenyl)-4-(piperidin-1-yl)-3-(propan-2-yl)-1H-pyrazolo[3,4-b]pyridine-6-carboxamide] | 455.4 | 409 | 254.85 | 839
COC1CCN(c2cc(C(=O)NS(=O)(=O)C3CCN(C(=O)OCc4ccccc4)CC3)nc3c2c(C2CCC2)nn3-c2ccccc2)CC1 [Compound 208, benzyl 4-{[3-cyclobutyl-4-(4-methoxypiperidin-1-yl)-1-phenyl-1H-pyrazolo[3,4-b]pyridine-6-carbonyl]sulfamoyl}piperidine-1-carboxylate] | 419.15 | 364 | 190.55 | 402
CC(C)Oc1nn(C2CCCCC2)c2nc(C(=O)NS(C)(=O)=O)cc(-c3ccc(C(=O)N4CC5CN(C)CC5C4)cc3)c12 (stereo not shown) [Compound 637, 1-cyclohexyl-N-(methanesulfonyl)-4-[4-(5-methylhexahydropyrrolo[3,4-c]pyrrole-2(1H)-carbonyl)phenyl]-3-[(propan-2-yl)oxy]-1H-pyrazolo[3,4-b]pyridine-6-carboxamide] | 413.4 | 971 | 191.88 | 2500
CS(=O)(=O)NC(=O)c1cc(N2CC3(CCOCC3)C2)c2c(C3CCC3)nn(-c3ccccc3)c2n1 [Compound 204, 3-cyclobutyl-N-(methanesulfonyl)-4-(7-oxa-2-azaspiro[3.5]nonan-2-yl)-1-phenyl-1H-pyrazolo[3,4-b]pyridine-6-carboxamide] | 288.6 | 490 | 117.6 | 978
COCC1CCN(c2cc(C(=O)NS(C)(=O)=O)nc3c2c(C2CCC2)nn3-c2ccnc(C)c2)CC1 [Compound 430, 3-cyclobutyl-N-(methanesulfonyl)-4-[4-(methoxymethyl)piperidin-1-yl]-1-(2-methylpyridin-4-yl)-1H-pyrazolo[3,4-b]pyridine-6-carboxamide] | 383.7 | 89.9 | 170.05 | 231
COC1CN(c2cccc(-n3nc(C(C)C)c4c(-c5ccc(N6CCOCC6)cc5)cc(C(=O)NS(C)(=O)=O)nc43)c2)C1 [Compound 36, N-(methanesulfonyl)-1-[3-(3-methoxyazetidin-1-yl)phenyl]-4-[4-(morpholin-4-yl)phenyl]-3-(propan-2-yl)-1H-pyrazolo[3,4-b]pyridine-6-carboxamide] | 572.93 | 246 | 384.57 | 416
COCCN(C)c1cc(C(=O)NS(C)(=O)=O)nc2c1c(C(C)C)nn2-c1cccc(C)c1 [Compound 170, N-(methanesulfonyl)-4-[(2-methoxyethyl)(methyl)amino]-1-(3-methylphenyl)-3-(propan-2-yl)-1H-pyrazolo[3,4-b]pyridine-6-carboxamide] | 425.6 | 722 | 213.5 | 975
CS(=O)(=O)NC(=O)c1cc(N2CCC(CF)CC2)c2c(C3CCC3)nn(-c3ccccc3)c2n1 [Compound 220, 3-cyclobutyl-4-[4-(fluoromethyl)piperidin-1-yl]-N-(methanesulfonyl)-1-phenyl-1H-pyrazolo[3,4-b]pyridine-6-carboxamide] | 389.9 | 208 | 202.5 | 348
COC1CCN(C2CCN(c3cc(C(=O)NS(C)(=O)=O)nc4c3c(C3CCC3)nn4-c3ccc(F)cc3)CC2)CC1 [Compound 548, 3-cyclobutyl-1-(4-fluorophenyl)-N-(methanesulfonyl)-4-(4-methoxy[1,4'-bipiperidin]-1'-yl)-1H-pyrazolo[3,4-b]pyridine-6-carboxamide] | 556.9 | 553 | 307.2 | 654
CS(=O)(=O)NC(=O)c1cc(-c2ccc(N3CCC(C#N)CC3)nc2)c2c(C3CCC3)nn(-c3ccnc(N4CCCC4)c3)c2n1 [Compound 189, 4-[6-(4-cyanopiperidin-1-yl)pyridin-3-yl]-3-cyclobutyl-N-(methanesulfonyl)-1-[2-(pyrrolidin-1-yl)pyridin-4-yl]-1H-pyrazolo[3,4-b]pyridine-6-carboxamide] | 409.6 | 236 | 236.2 | 421
CCS(=O)(=O)NC(=O)c1cc(-c2ccc(N3CCOCC3)cc2)c2c(C)nn(-c3cc(C)cc(C)c3)c2n1 [Compound 115, 1-(3,5-dimethylphenyl)-N-(ethanesulfonyl)-3-methyl-4-[4-(morpholin-4-yl)phenyl]-1H-pyrazolo[3,4-b]pyridine-6-carboxamide] | 389.6 | 665 | 216.05 | 1050
CC1(S(=O)(=O)NC(=O)c2cc(N3CCC(N4CCOCC4)CC3)c3c(C4CCC4)nn(-c4ccccc4)c3n2)CC1 [Compound 435, 3-cyclobutyl-N-(1-methylcyclopropane-1-sulfonyl)-4-[4-(morpholin-4-yl)piperidin-1-yl]-1-phenyl-1H-pyrazolo[3,4-b]pyridine-6-carboxamide] | 474.8 | 82.8 | 269.9 | 136
CC1(c2nn(-c3ccccc3)c3nc(C(=O)NS(C)(=O)=O)cc(-c4ccc(N5CCOCC5)cc4)c23)CCC1 [Compound 137, N-(methanesulfonyl)-3-(1-methylcyclobutyl)-4-[4-(morpholin-4-yl)phenyl]-1-phenyl-1H-pyrazolo[3,4-b]pyridine-6-carboxamide] | 339.7 | 638 | 131.8 | 1170
CC(C)c1nn(-c2ccc(F)cc2)c2nc(C(=O)NS(C)(=O)=O)cc(N3CCNC(C(F)(F)F)C3)c12 (stereo not shown) [Compound 339, 1-(4-fluorophenyl)-N-(methanesulfonyl)-3-(propan-2-yl)-4-[3-(trifluoromethyl)piperazin-1-yl]-1H-pyrazolo[3,4-b]pyridine-6-carboxamide] | 295.5 | 402 | 142.05 | 1400
CC(C)c1nn(-c2cccc(N(C)C)c2)c2nc(C(=O)NS(C)(=O)=O)cc(OCC3CCOCC3)c12 [Compound 278, 1-[3-(dimethylamino)phenyl]-N-(methanesulfonyl)-4-[(oxan-4-yl)methoxy]-3-(propan-2-yl)-1H-pyrazolo[3,4-b]pyridine-6-carboxamide] | 388.5 | 88.3 | 233.7 | 120
